# Test results: patent publication US20230041563A1, “N-(1,3,4-OXADIAZOL-2-YL)ARYLCARBOXAMIDES OR SALTS THEREOF, PREPARATION METHODS, HERBICIDAL COMPOSITIONS AND USES THEREOF” (priority 2018, published 2023)
# How the values were obtained:
# Digitaria sanguinalis [1] = test: Weeding effect in post-emergence stage (greenhouse pot spray); assay type: in vivo
# How it was run: (§1)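 Fresh-weight control rate was assessed 3 weeks after post-emergence spray-tower application at doses of 500–15 g a.i./ha, triplicate. Weeds were treated at the 2–3 leaf stage, 2 weeks post-sowing, using acetone solutions with Tween 80 plus 1.5 L/ha methyl oleate emulsifiable concentrate.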
# Echinochloa crusgalli = test: as above; assay type: in vivo
# How it was run: as §1
# Setaria viridis = test: as above; assay type: in vivo
# How it was run: as §1
# Abutilon theophrasti = test: Post-emergence control experiment of R configuration compound activity (weeds 4-5 leaf stage, 25 days); assay type: in vivo; settings: Abutilon theophrasti, post-emergence; read-out: Ablation theophrasti (30 g a.i./ha) inhibition rate
# Procedure: (§2) Experiment on weeding effect in post-emergence stage: after 3-4 weeks of sowing, the test plants were treated in the 1.5-2 leaf stage of the directly sowed rice Longyang 16, and the 4-5 leaf stage of weeds. After the application of the compounds of the present invention, the plants were cultured for 25 days in the greenhouse, and then the experimental results of the weeding were counted.
# Digitaria sanguinalis [2] = test: as above; assay type: in vivo; settings: Digitaria sanguinalis, post-emergence; read-out: Digitaria sanguinalis (30 g a.i./ha) inhibition rate
# Procedure: as §2
# Green Setaria viridis = test: as above; assay type: in vivo; settings: Setaria viridis, post-emergence
# Procedure: as §2
# Leptochloa chinensis [3] = test: as above; assay type: in vivo
# Procedure: as §2
# Rice (Longyang 16) = test: Post-emergence control experiment of R configuration compound activity (directly sowed rice 1.5-2 leaf stage, 25 days); assay type: in vivo
# Procedure: as §2
# Longyang 16 is a representative and important long-grain fragrant rice in Northeast China. Long-grain fragrant rice is more sensitive to herbicides, especially to HPPD herbicides such as Mesotrione, Benzobicylon and the like, which are prone to causing phytotoxicity.
# Echinochloa crusgali = test: Transplanted rice safety evaluation and weed control effect evaluation in rice field; assay type: in vivo; settings: Table 8, dose 60 g a.i./ha
# Description: (§3) Transplanted rice safety evaluation and weed control effect evaluation in rice field:
# (§4) Rice field soil was loaded into a 1/1,000,000 ha pot. The seeds of echinochloa crusgali, scirpus juncoides, Bidens tripartita, Sagittaria trifolia, Monochoria vaginalis and Leptochloa chinensis were sowed and gently covered with soil, then left to stand still in greenhouse in the state of 0.5-1 cm of water storage. The tuber of Sagittaria trifolia was planted in the next day or 2 days later. It was kept at 3-4 cm of water storage thereafter. The weeds were treated by dripping the WP or SC water diluents prepared according to the common preparation method of the compounds of the present invention with pipette homogeneously to achieve specified effective amount when echinochloa crusgali, scirpus juncoides, Bidens tripartita, Monochoria vaginalis and Leptochloa chinensis reached 0.5 leaf stage and Sagittaria trifolia reached the time point of primary leaf stage.
# (§5) The fertility condition of echinochloa crusgali, scirpus juncoides, Bidens tripartita, Leptochloa chinensis, Sagittaria trifolia and Monochoria vaginalis 14 days after the treatment of the compound of the invention and the fertility condition of rice 21 days after the treatment of the compound of the invention respectively with the naked eye. Evaluate the weed control effect with 0-5 activity standard level. Many compounds show excellent activity and selectivity.
# Leptochloa chinensis [4] = test: as above; assay type: in vivo; settings: Table 8, dose 60 g a.i./ha
# Description: as §3, §4, §5
# Monochoria vaginalis = test: as above; assay type: in vivo; settings: Table 8, dose 60 g a.i./ha
# Description: as §3, §4, §5
# Sagittaria trifolia = test: as above; assay type: in vivo; settings: Table 8, dose 60 g a.i./ha
# Description: as §3, §4, §5
# Rice = test: as above; assay type: in vivo, rice (japonica rice/Indica rice); settings: Table 8, dose 60 g a.i./ha
# Procedure: as §3
# In addition, the rice field soil that loaded into the 1/1,000,000 ha pot was leveled to keep water storage at 3-4 cm depth. The 3 leaf stage rice (japonica rice/Indica rice) was transplanted at 3 cm of transplanting depth the next day. The compound of the present invention was treated by the same way after 5 days of transplantation.
# as §5
smiles,measurement,setting,value
CCC[S@@+]([O-])c1c(C(F)(F)F)ccc(C(=O)Nc2nnc(C)o2)c1F [1-8 (R-configuration)],Digitaria sanguinahs (activity level),"Digitaria sanguinalis [1]; Table 3, dose 3.75 g a.i./ha",4 (Level 4: growth control rate is greater than or equal to 60% and less than 85%)
same,Digitaria sanguinahs (activity level),"Digitaria sanguinalis [1]; Table 3, dose 7.5 g a.i./ha",5 (Level 5: growth control rate is above 85%)
same,Digitaria sanguinahs (activity level),"Digitaria sanguinalis [1]; Table 3, dose 15 g a.i./ha",5 (Level 5: growth control rate is above 85%)
same,Digitaria sanguinahs (activity level),"Digitaria sanguinalis [1]; Table 3, dose 30 g a.i./ha",5 (Level 5: growth control rate is above 85%)
same,Digitaria sanguinahs (activity level),"Digitaria sanguinalis [1]; Table 3, dose 60 g a.i./ha",5 (Level 5: growth control rate is above 85%)
same,Echinochloa crusgali (activity level),"Echinochloa crusgalli; Table 3, dose 3.75 g a.i./ha",5 (Level 5: growth control rate is above 85%)
same,Echinochloa crusgali (activity level),"Echinochloa crusgalli; Table 3, dose 7.5 g a.i./ha",5 (Level 5: growth control rate is above 85%)
same,Echinochloa crusgali (activity level),"Echinochloa crusgalli; Table 3, dose 15 g a.i./ha",5 (Level 5: growth control rate is above 85%)
same,Echinochloa crusgali (activity level),"Echinochloa crusgalli; Table 3, dose 30 g a.i./ha",5 (Level 5: growth control rate is above 85%)
same,Echinochloa crusgali (activity level),"Echinochloa crusgalli; Table 3, dose 60 g a.i./ha",5 (Level 5: growth control rate is above 85%)
same,Setaria viridis (activity level),"Setaria viridis; Table 3, dose 3.75 g a.i./ha",2 (Level 2: growth control rate is greater than or equal to 20% and less than 40%)
same,Setaria viridis (activity level),"Setaria viridis; Table 3, dose 7.5 g a.i./ha",4 (Level 4: growth control rate is greater than or equal to 60% and less than 85%)
same,Setaria viridis (activity level),"Setaria viridis; Table 3, dose 15 g a.i./ha",5 (Level 5: growth control rate is above 85%)
same,Setaria viridis (activity level),"Setaria viridis; Table 3, dose 30 g a.i./ha",5 (Level 5: growth control rate is above 85%)
same,Setaria viridis (activity level),"Setaria viridis; Table 3, dose 60 g a.i./ha",5 (Level 5: growth control rate is above 85%)
same,inhibition at 30 g/ha,Abutilon theophrasti,100%
same,inhibition at 30 g/ha,Digitaria sanguinalis [2],100%
same,inhibition at 30 g/ha,Green Setaria viridis; read-out: Green Setaria viridis (30 g a.i./ha) inhibition rate,75%
same,inhibition at 60 g/ha,Green Setaria viridis; read-out: Green Setaria viridis (60 g a.i./ha) inhibition rate,100%
same,inhibition at 60 g/ha,"Leptochloa chinensis [3]; Dinebra chinensis, post-emergence, read-out: Leptochloa chinensis (60 g a.i./ha) inhibition rate",85%
same,inhibition at 125 g/ha,"Leptochloa chinensis [3]; Dinebra chinensis, post-emergence, read-out: Leptochloa chinensis (125 g a.i./ha) inhibition rate",100%
same,"activity against key weed Leptochloa chinensis / key weeds, in words",Leptochloa chinensis [3]; in vivo,better activity
same,Rice (Longyang 16) (250 g a.i./ha) inhibition rate,Rice (Longyang 16); 250 g a.i./ha,0%
same,Rice (Longyang 16) (500 g a.i./ha) inhibition rate,Rice (Longyang 16); 500 g a.i./ha,0%
same,"safety on rice (Longyang 16), in words",Rice (Longyang 16); in vivo,high safety
same,Echinochloa crusgali (activity level),Echinochloa crusgali,5 (Level 5: growth control rate is above 85%)
same,Leptochloa chinensis (activity level),Leptochloa chinensis [4],5 (Level 5: growth control rate is above 85%)
same,Monochoria vaginalis (activity level),Monochoria vaginalis,5 (Level 5: growth control rate is above 85%)
same,Sagittaria trifolia (activity level),Sagittaria trifolia,5 (Level 5: growth control rate is above 85%)
same,Rice (safety level),Rice,0 (Level 0: growth control rate is less than 5%)
